Structures are written as SMILES.

Data on seven compounds can be found in BindingDB's records for patent US11780849 (Volastra Therapeutics, 2023).

The target of this assay is T1, Ectonucleotide pyrophosphatase/phosphodiesterase family member 1 (Homo sapiens, UniProt P22413).
T1 sequence (P22413 whole entry): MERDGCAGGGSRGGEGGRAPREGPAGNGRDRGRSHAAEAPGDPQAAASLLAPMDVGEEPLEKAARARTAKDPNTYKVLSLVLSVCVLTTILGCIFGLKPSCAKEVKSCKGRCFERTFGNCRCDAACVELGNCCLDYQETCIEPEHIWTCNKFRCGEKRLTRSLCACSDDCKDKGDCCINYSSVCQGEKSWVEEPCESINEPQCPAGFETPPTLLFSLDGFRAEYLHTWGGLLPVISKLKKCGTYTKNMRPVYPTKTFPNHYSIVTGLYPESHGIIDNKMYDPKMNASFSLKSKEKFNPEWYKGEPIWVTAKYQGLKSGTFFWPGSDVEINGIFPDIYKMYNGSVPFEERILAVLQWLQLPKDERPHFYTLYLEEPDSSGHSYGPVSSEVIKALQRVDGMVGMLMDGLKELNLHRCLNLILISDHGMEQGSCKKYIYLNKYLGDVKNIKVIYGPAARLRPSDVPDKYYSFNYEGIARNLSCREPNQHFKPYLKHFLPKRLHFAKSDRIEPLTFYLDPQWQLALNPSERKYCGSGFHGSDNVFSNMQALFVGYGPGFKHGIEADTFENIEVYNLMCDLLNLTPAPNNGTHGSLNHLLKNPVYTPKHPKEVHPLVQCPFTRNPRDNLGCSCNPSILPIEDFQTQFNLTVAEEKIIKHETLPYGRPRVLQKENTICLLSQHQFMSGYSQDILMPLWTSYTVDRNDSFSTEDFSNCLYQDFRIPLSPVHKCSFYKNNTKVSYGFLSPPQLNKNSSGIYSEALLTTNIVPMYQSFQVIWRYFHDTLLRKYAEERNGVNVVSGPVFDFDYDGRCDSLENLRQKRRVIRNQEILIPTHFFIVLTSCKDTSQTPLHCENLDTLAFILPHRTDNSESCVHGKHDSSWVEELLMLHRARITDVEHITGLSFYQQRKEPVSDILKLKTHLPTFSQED
Description: Inhibition of ENPP1 Hydrolysis of 2′,3′-cGAMP.
Description: Assay 1: Test compounds were plated in a 3 dilution scheme in a 384 well plate. […] AMP Detection solution (100 μL) was added to each well, the plate centrifuged and incubated for 60 min. Luminescence was measured with an Envision plate reader, and % Inhibition was calculated for each well as: (([max−min]−[test−min])/[max−min].
Regarding `COc1ccc2nccc(Oc3ccc(S(C)(=N)=O)cc3)c2n1` (configuration not stated) [US11780849, Compound 130], the IC50 is greater than 1000 nM.
For `COc1cccc2c(OCc3ccc(S(C)(=N)=O)cc3)ccnc12` (configuration not stated) [US11780849, Compound 134], the IC50 was greater than 1000 nM.
As for `COc1ccc2c(OCc3ccc(S(C)(=N)=O)cc3F)ccnc2c1` (configuration not stated) [US11780849, Compound 135], the figure is less than 10 nM; as for `COc1cc2nccc(N3CCC(CCS(C)(=N)=O)CC3)c2cc1Cl` (configuration not stated) [US11780849, Compound 141], less than 10 nM.
`COc1cc2nccc(N3CCC(CCS(C)(=N)=O)CC3)c2cc1F` (configuration not stated) [US11780849, Compound 150] had an IC50 of less than 10 nM.
As for `COc1cc2nncc(N3CCC(CCS(C)(=N)=O)CC3)c2cc1OC` (configuration not stated) [US11780849, Compound 151], the figure is less than 10 nM.
The value for `COc1cc2nccc(-c3ccc4c(c3)CN(S(C)(=N)=O)CC4)c2cc1OC` (configuration not stated) [US11780849, Compound 161] was less than 10 nM.
